Like-named read-outs stand apart in the source and are kept apart here.
Columns and labels:
A2780 cells = assay: In-vitro cell proliferation assay (SRB), A2780 cells; format: cell-based; conditions: Homo sapiens, A2780, 72 h, A2780 cells, 72 hours, read-out: A2780 IC50
In short: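 Growth inhibition was derived from background-corrected SRB absorbance (570 nm), measured on cells fixed in 6% TCA after three days of compound treatment under 5% CO2 at 37° C.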

NAMPT = biological target: T1, NAMPT (Homo sapiens, UniProt P43490); assay: Biochemical inhibition assay: NAMPT enzymatic reaction, NMN quantified by mass spectrometry; conditions: read-out: Biochem IC50
T1 construct: His tag; host or cells: E. coli
In short: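 Inhibition of E. coli-expressed His-tagged human NAMPT, measured as NMN formation by mass spectrometry after a 30 min room-temperature reaction containing 1 μM NAM, 100 μM PRPP and 2.5 mM ATP.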

T1 sequence (P43490 whole entry): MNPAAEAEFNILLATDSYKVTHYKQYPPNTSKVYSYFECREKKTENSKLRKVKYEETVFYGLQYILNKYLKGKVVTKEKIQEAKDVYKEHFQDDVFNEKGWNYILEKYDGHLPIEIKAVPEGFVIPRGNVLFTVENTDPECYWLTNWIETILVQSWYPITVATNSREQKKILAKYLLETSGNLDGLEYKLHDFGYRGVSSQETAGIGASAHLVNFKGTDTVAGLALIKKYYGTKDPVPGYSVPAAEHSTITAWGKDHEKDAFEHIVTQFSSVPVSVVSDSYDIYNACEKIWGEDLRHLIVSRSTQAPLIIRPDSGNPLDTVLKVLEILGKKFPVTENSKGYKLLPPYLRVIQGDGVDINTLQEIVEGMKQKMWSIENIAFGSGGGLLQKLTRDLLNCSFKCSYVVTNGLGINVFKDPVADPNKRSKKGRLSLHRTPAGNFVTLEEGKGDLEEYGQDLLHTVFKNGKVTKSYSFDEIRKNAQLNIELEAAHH

| Structure (SMILES) | IC50 (A2780 cells; SRB assay) [nM] | IC50 (NAMPT; NAMPT enzymatic reaction) [nM] | IC50 (A2780 cells; SRB) [nM] | IC50 (NAMPT; NAMPT enzymatic assay) [nM] |
| --- | --- | --- | --- | --- |
| O=C(NCc1ccc(S(=O)(=O)c2ccc3c(c2)OCO3)cc1)c1cc2cnccc2[nH]1 [N-{[4-(2H-1,3-benzodioxole-5-sulfonyl)phenyl]methyl}-1H-pyrrolo[3,2-c]pyridine-2-carboxamide] | 7 | 8 | – | – |
| O=C(NCc1ccc(S(=O)(=O)c2ccc3c(c2)OCO3)cc1)c1cc2ccncc2o1 [N-{[4-(2H-1,3-benzodioxole-5-sulfonyl)phenyl]methyl}furo[2,3-c]pyridine-2-carboxamide] | – | – | 8.7 | 5.3 |
| O=C(NCc1ccc(S(=O)(=O)c2ccc3c(c2)OCO3)cc1)c1ccc2nccn2c1 [N-{[4-(2H-1,3-benzodioxole-5-sulfonyl)phenyl]methyl}imidazo[1,2-a]pyridine-6-carboxamide] | – | – | 5.33 | 10.7 |
| O=C(NCc1ccc(S(=O)(=O)c2ccc3c(c2)OCO3)cc1)c1cnc2nccn2c1 [N-{[4-(2H-1,3-benzodioxole-5-sulfonyl)phenyl]methyl}imidazo[1,2-a]pyrimidine-6-carboxamide] | – | – | 11.7 | 3 |
| O=C(NCc1ccc(S(=O)(=O)c2ccc3c(c2)OCO3)cc1)c1cc2ccncc2s1 [N-{[4-(2H-1,3-benzodioxole-5-sulfonyl)phenyl]methyl}thieno[2,3-c]pyridine-2-carboxamide] | 2.5 | 3 | – | – |
| Cc1ccnc(S(=O)(=O)c2ccc(CNC(=O)c3cc4ccncc4o3)cc2)c1 [N-{[4-(4-methylpyridine-2-sulfonyl)phenyl]methyl}furo[2,3-c]pyridine-2-carboxamide] | – | – | 11.4 | 19.2 |
| Cc1ccncc1S(=O)(=O)c1ccc(CNC(=O)c2cnc3[nH]ncc3c2)cc1 [N-{[4-(4-methylpyridine-3-sulfonyl)phenyl]methyl}-1H-pyrazolo[3,4-b]pyridine-5-carboxamide] | – | – | 271 | 100 to 1000 |
| Cc1ccncc1S(=O)(=O)c1ccc(CNC(=O)c2cc3cnccc3[nH]2)cc1 [N-{[4-(4-methylpyridine-3-sulfonyl)phenyl]methyl}-1H-pyrrolo[3,2-c]pyridine-2-carboxamide] | – | – | 25.8 | 260 |
| Cc1ccncc1S(=O)(=O)c1ccc(CNC(=O)c2cc3ccncc3o2)cc1 [N-{[4-(4-methylpyridine-3-sulfonyl)phenyl]methyl}furo[2,3-c]pyridine-2-carboxamide] | – | – | 62 | 25.2 |
| Cc1ccncc1S(=O)(=O)c1ccc(CNC(=O)c2ccc3nccn3c2)cc1 [N-{[4-(4-methylpyridine-3-sulfonyl)phenyl]methyl}imidazo[1,2-a]pyridine-6-carboxamide] | – | – | 65.8 | 66.5 |
| Cc1ccncc1S(=O)(=O)c1ccc(CNC(=O)c2cnc3nccn3c2)cc1 [N-{[4-(4-methylpyridine-3-sulfonyl)phenyl]methyl}imidazo[1,2-a]pyrimidine-6-carboxamide] | – | – | 100 to 1000 | 19.1 |
| Cc1ccncc1S(=O)(=O)c1ccc(CNC(=O)c2cc3ccncc3s2)cc1 [N-{[4-(4-methylpyridine-3-sulfonyl)phenyl]methyl}thieno[2,3-c]pyridine-2-carboxamide] | – | – | 22.5 | 29.2 |
| Cc1csc(S(=O)(=O)c2ccc(CNC(=O)c3ccc4nccn4c3)cc2)c1 [N-{[4-(4-methylthiophene-2-sulfonyl)phenyl]methyl}imidazo[1,2-a]pyridine-6-carboxamide] | – | – | 12.5 | 12.4 |
| Cc1cc(Cl)cnc1S(=O)(=O)c1ccc(CNC(=O)c2cnc3[nH]ncc3c2)cc1 [N-{[4-(5-chloro-3-methylpyridine-2-sulfonyl)phenyl]methyl}-1H-pyrazolo[3,4-b]pyridine-5-carboxamide] | – | – | 75.3 | 62.5 |
| Cc1cc(Cl)cnc1S(=O)(=O)c1ccc(CNC(=O)c2cc3ccncc3o2)cc1 [N-{[4-(5-chloro-3-methylpyridine-2-sulfonyl)phenyl]methyl}furo[2,3-c]pyridine-2-carboxamide] | – | – | 16.5 | 9.9 |
| Cc1cc(Cl)cnc1S(=O)(=O)c1ccc(CNC(=O)c2ccc3nccn3c2)cc1 [N-{[4-(5-chloro-3-methylpyridine-2-sulfonyl)phenyl]methyl}imidazo[1,2-a]pyridine-6-carboxamide] | – | – | 8 | 18.8 |
| Cc1cc(Cl)cnc1S(=O)(=O)c1ccc(CNC(=O)c2cnc3nccn3c2)cc1 [N-{[4-(5-chloro-3-methylpyridine-2-sulfonyl)phenyl]methyl}imidazo[1,2-a]pyrimidine-6-carboxamide] | – | – | 22 | 2.2 |
| Cc1cc(Cl)cnc1S(=O)(=O)c1ccc(CNC(=O)c2cc3ccncc3s2)cc1 [N-{[4-(5-chloro-3-methylpyridine-2-sulfonyl)phenyl]methyl}thieno[2,3-c]pyridine-2-carboxamide] | – | – | 7.2 | 3.9 |

| Structure (SMILES) | IC50 (A2780 cells; SRB assay) [nM] | IC50 (NAMPT; NAMPT enzymatic reaction) [nM] | IC50 (A2780 cells; SRB) [nM] | IC50 (NAMPT; NAMPT enzymatic assay) [nM] |
| --- | --- | --- | --- | --- |
| O=C(NCc1ccc(S(=O)(=O)c2cncc(Cl)c2)cc1)c1cnc2[nH]ncc2c1 [N-{[4-(5-chloropyridine-3-sulfonyl)phenyl]methyl}-1H-pyrazolo[3,4-b]pyridine-5-carboxamide] | – | – | 6.2 | 23.8 |
| O=C(NCc1ccc(S(=O)(=O)c2cncc(Cl)c2)cc1)c1cc2cnccc2[nH]1 [N-{[4-(5-chloropyridine-3-sulfonyl)phenyl]methyl}-1H-pyrrolo[3,2-c]pyridine-2-carboxamide] | – | – | 3.6 | 20 |
| Cc1nc(S(=O)(=O)c2ccc(CNC(=O)c3cc4ccncc4o3)cc2)ccc1F [N-{[4-(5-fluoro-6-methylpyridine-2-sulfonyl)phenyl]methyl}furo[2,3-c]pyridine-2-carboxamide] | – | – | 12.4 | 6.2 |
| Cc1nc(S(=O)(=O)c2ccc(CNC(=O)c3cc4ccncc4s3)cc2)ccc1F [N-{[4-(5-fluoro-6-methylpyridine-2-sulfonyl)phenyl]methyl}thieno[2,3-c]pyridine-2-carboxamide] | – | – | 7.1 | 8.3 |
| O=C(NCc1ccc(S(=O)(=O)c2cncc(F)c2)cc1)c1cnc2[nH]ncc2c1 [N-{[4-(5-fluoropyridine-3-sulfonyl)phenyl]methyl}-1H-pyrazolo[3,4-b]pyridine-5-carboxamide] | – | – | 25.4 | 79.2 |
| O=C(NCc1ccc(S(=O)(=O)c2cncc(F)c2)cc1)c1cc2cnccc2[nH]1 [N-{[4-(5-fluoropyridine-3-sulfonyl)phenyl]methyl}-1H-pyrrolo[3,2-c]pyridine-2-carboxamide] | – | – | 13.6 | 71.3 |
| O=C(NCc1ccc(S(=O)(=O)c2cncc(F)c2)cc1)c1ccc2nccn2c1 [N-{[4-(5-fluoropyridine-3-sulfonyl)phenyl]methyl}imidazo[1,2-a]pyridine-6-carboxamide] | – | – | 13.7 | 27.8 |
| O=C(NCc1ccc(S(=O)(=O)c2cncc(F)c2)cc1)c1cnc2nccn2c1 [N-{[4-(5-fluoropyridine-3-sulfonyl)phenyl]methyl}imidazo[1,2-a]pyrimidine-6-carboxamide] | – | – | 56.4 | 6.7 |
| O=C(NCc1ccc(S(=O)(=O)c2cncc(F)c2)cc1)c1cc2ccncc2s1 [N-{[4-(5-fluoropyridine-3-sulfonyl)phenyl]methyl}thieno[2,3-c]pyridine-2-carboxamide] | – | – | 6.4 | 9.7 |
| COc1ccc(S(=O)(=O)c2ccc(CNC(=O)c3cc4ccncc4o3)cc2)nc1 [N-{[4-(5-methoxypyridine-2-sulfonyl)phenyl]methyl}furo[2,3-c]pyridine-2-carboxamide] | – | – | 31.6 | 7.9 |
| COc1ccc(S(=O)(=O)c2ccc(CNC(=O)c3ccc4nccn4c3)cc2)nc1 [N-{[4-(5-methoxypyridine-2-sulfonyl)phenyl]methyl}imidazo[1,2-a]pyridine-6-carboxamide] | – | – | 17.3 | 22.9 |
| COc1ccc(S(=O)(=O)c2ccc(CNC(=O)c3cc4ccncc4s3)cc2)nc1 [N-{[4-(5-methoxypyridine-2-sulfonyl)phenyl]methyl}thieno[2,3-c]pyridine-2-carboxamide] | – | – | 19.3 | 7.1 |
| COc1cncc(S(=O)(=O)c2ccc(CNC(=O)c3cnc4[nH]ncc4c3)cc2)c1 [N-{[4-(5-methoxypyridine-3-sulfonyl)phenyl]methyl}-1H-pyrazolo[3,4-b]pyridine-5-carboxamide] | – | – | 16.7 | 41.4 |
| COc1cncc(S(=O)(=O)c2ccc(CNC(=O)c3ccc4nccn4c3)cc2)c1 [N-{[4-(5-methoxypyridine-3-sulfonyl)phenyl]methyl}imidazo[1,2-a]pyridine-6-carboxamide] | – | – | 3.4 | 9 |
| COc1cncc(S(=O)(=O)c2ccc(CNC(=O)c3cnc4nccn4c3)cc2)c1 [N-{[4-(5-methoxypyridine-3-sulfonyl)phenyl]methyl}imidazo[1,2-a]pyrimidine-6-carboxamide] | – | – | 25.8 | 1.6 |
| COc1cncc(S(=O)(=O)c2ccc(CNC(=O)c3cc4ccncc4s3)cc2)c1 [N-{[4-(5-methoxypyridine-3-sulfonyl)phenyl]methyl}thieno[2,3-c]pyridine-2-carboxamide] | – | – | 1.6 | 9 |
| Cc1cncc(S(=O)(=O)c2ccc(CNC(=O)c3ccc4nccn4c3)cc2)c1 [N-{[4-(5-methylpyridine-3-sulfonyl)phenyl]methyl}imidazo[1,2-a]pyridine-6-carboxamide] | – | – | 7.1 | 36.8 |
| Cc1cncc(S(=O)(=O)c2ccc(CNC(=O)c3cnc4nccn4c3)cc2)c1 [N-{[4-(5-methylpyridine-3-sulfonyl)phenyl]methyl}imidazo[1,2-a]pyrimidine-6-carboxamide] | – | – | 12.4 | 2.2 |
